Experiments:
A2A-adenosine receptor = A2A-adenosine receptor (Homo sapiens, UniProt P29274); details: result in words; cited from earlier work
[1] = cited from earlier work
[2] = stability of the polymorphs (relative humidity stress, moisture sorption/desorption, thermal analyses); assay type: physicochemical; details: for stability relative to the other polymorphs: ambient temperatures; for stability relative to the other polymorphs / stability under relative humidity stress conditions: monohydrate; for stability under relative humidity stress conditions: up to melting point
Description: Thermogravimetric (TG) analyses were carried out on a TA Instruments 2050 or 2950 thermogravimetric analyzer. The calibration standards were nickel and Alumel™. Samples were placed in an aluminum sample pan, inserted into the TG furnace, and accurately weighed. The samples were heated in nitrogen at a rate of 10° C./min to either 300 or 350° C. Unless stated otherwise, sample weights were equilibrated at 25° C. in the TGA furnace prior to analysis.
Differential scanning calorimetry (DSC) analyses were carried out on a TA Instruments differential scanning calorimeter 2920. Accurately weighed samples were placed in either crimped pans or hermetically sealed pans that contained a pinhole to allow for pressure release. Each sample was heated under nitrogen at a rate of 10° C./min to either 300 or 350° C. Indium metal was used as the calibration standard. Temperatures were reported at the transition maxima.
Moisture sorption/desorption data were collected on a VTI SGA-100 Vapor Sorption Analyzer. Sorption and desorption data were collected over a range of 5% to 95% relative humidity […] at 10% RH intervals under a nitrogen purge. Sodium chloride (NaCl) and polyvinylpyrrolidone (PVP) were used as the calibration standards. Equilibrium criteria used for analysis were less than 0.0100% weight change in 5 minutes, with a maximum equilibration time of 180 minutes if the weight criterion was not met. The plotted data have not been corrected for the initial moisture content.

A2A-adenosine receptor, sequence (P29274 whole entry): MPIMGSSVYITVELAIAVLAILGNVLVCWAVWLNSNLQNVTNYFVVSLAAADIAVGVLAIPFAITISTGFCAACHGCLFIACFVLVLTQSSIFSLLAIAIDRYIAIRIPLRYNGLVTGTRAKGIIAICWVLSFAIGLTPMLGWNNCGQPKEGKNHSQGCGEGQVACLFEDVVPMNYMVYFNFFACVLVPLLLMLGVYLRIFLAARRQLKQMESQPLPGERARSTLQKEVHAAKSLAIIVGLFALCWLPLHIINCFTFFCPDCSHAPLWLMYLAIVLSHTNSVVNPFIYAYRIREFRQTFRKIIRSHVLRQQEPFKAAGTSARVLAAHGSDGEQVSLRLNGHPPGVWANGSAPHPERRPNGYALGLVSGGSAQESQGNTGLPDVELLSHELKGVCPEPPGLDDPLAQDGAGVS

**Q.** With CNC(=O)c1cnn(-c2nc(N)c3ncn([C@@H]4O[C@H](CO)[C@@H](O)[C@H]4O)c3n2)c1 [(1-{9-[(4S,2R,3R,5R)-3,4-dihydroxy-5-(hydroxymethyl)oxolan-2-yl]-6-aminopurin-2-yl}pyrazol-4-yl)-N-methylcarboxamide] as the molecule, how does the “A2A-adenosine receptor agonist selectivity” value (A2A-adenosine receptor) read?
**A.** The value was “highly selective A2A-adenosine receptor agonist”.

**Q.** With Nc1ncnc2c1ncn2[C@@H]1O[C@H](CO)[C@@H](O)[C@H]1O [Adenosine] as the molecule, how does the “half life in humans” value [1] read?
**A.** Its value is “less than 10 seconds”.

**Q.** For CNC(=O)c1cnn(-c2nc(N)c3ncn([C@@H]4O[C@H](CO)[C@@H](O)[C@H]4O)c3n2)c1 [Amorphous Material, (1-{9-[(4S,2R,3R,5R)-3,4-dihydroxy-5-(hydroxymethyl)oxolan-2-yl]-6-aminopurin-2-yl}pyrazol-4-yl)-N-methylcarboxamide], which “stability in the presence of atmospheric moisture” value ([2]; atmospheric moisture) is on record?
**A.** The value was “unstable in the presence of atmospheric moisture, forming variable hydrates”.

**Q.** With CNC(=O)c1cnn(-c2nc(N)c3ncn([C@@H]4O[C@H](CO)[C@@H](O)[C@H]4O)c3n2)c1.O [Form A, (1-{9-[(4S,2R,3R,5R)-3,4-dihydroxy-5-(hydroxymethyl)oxolan-2-yl]-6-aminopurin-2-yl}pyrazol-4-yl)-N-methylcarboxamide monohydrate] as the molecule, how does the “stability relative to the other polymorphs” value ([2]; listed as monohydrate) read?
**A.** Its value is “the most stable”.

**Q.** What about the “stability relative to the other polymorphs” value [2] of the same molecule?
**A.** The value was “the most stable of the various polymorphs at ambient temperatures”.

**Q.** And the “stability under relative humidity stress conditions” value ([2]; listed as monohydrate)?
**A.** The value was “stable under relative humidity stress conditions, up to its melting point”.

**Q.** And the “stability under relative humidity stress conditions” value [2]?
**A.** Its value is “stable under relative humidity stress conditions up to its melting point”.

**Q.** Which “behaviour at elevated temperatures” value ([2]; elevated temperatures) does the source give for CNC(=O)c1cnn(-c2nc(N)c3ncn([C@@H]4O[C@H](CO)[C@@H](O)[C@H]4O)c3n2)c1 [Polymorph C, (1-{9-[(4S,2R,3R,5R)-3,4-dihydroxy-5-(hydroxymethyl)oxolan-2-yl]-6-aminopurin-2-yl}pyrazol-4-yl)-N-methylcarboxamide] here?
**A.** The value was “desolvates to an unstable form”.
